Patent publication US8524257B2, “Menthol-containing solids composition” (Symrise AG, priority 2005, dated 2013)

Assays:
[1] = Dissolving test in ethanol/water, time to complete dissolution; format: physicochemical; conditions: 5 g in 95 g ethanol/water (equal parts by weight), 20° C., stirred, visual determination
Experimental: The different rates of dissolution of a solids composition according to the invention of Example 1a above and of forms of l-menthol that are not in accordance with the invention were compared.
To this end, 5 g of l-menthol or 5 g of the l-menthol-containing solids composition according to the invention of Example 1a were added to 95 g of a mixture, kept at a constant temperature of 20° C., of equal parts by weight of ethanol and water, and the time taken for the menthol or the menthol-containing solids composition to dissolve completely (visual determination) was calculated.
The dissolving test was carried out in a glass beaker having a diameter of 5 cm and a filling height of 7 cm. The contents of the glass beaker were stirred during the dissolving test in each case using a magnetic stirring bead having a length of 4 cm with a magnetic stirrer speed of 4 revolutions per second. The temperature was monitored with a Pt-100 thermometer which was immersed to a depth of 5 cm in the liquid, was located at a distance of 1 cm from the wall of the glass beaker and at the same time served as flow breaker.
The size of the crystals corresponded to the typical (commercial) crystal geometry of natural l-menthol.

[2] = cited from earlier work

CC(C)[C@@H]1CC[C@@H](C)C[C@H]1O [Clumped menthol crystals, l-menthol]
Time to complete dissolution [1]: 280 s

CC(C)[C@@H]1CC[C@@H](C)C[C@H]1O [Crystals of natural menthol, l-menthol]
Time to complete dissolution [1]: 255 s

CC(C)[C@@H]1CC[C@@H](C)C[C@H]1O [Menthol crystals from Example 1, l-menthol]
Time to complete dissolution [1]: 170 s

CC(C)[C@@H]1CC[C@@H](C)C[C@H]1O [Menthol pellets according to WO 03/101924, Example 1] [l-menthol]
Time to complete dissolution [1]: 504 s

CC(C)[C@@H]1CC[C@@H](C)C[C@H]1O [flaked l-menthol, l-menthol]
adhesion and clumping ([2]; after 24 hours, as described in U.S. Pat. No. 3,064,311): adhesion and clumping of the flakes

CC1CCC(C(C)C)C(O)C1 (stereo not drawn) [menthol pressed articles, menthol]
clumping and caking ([2]; stored for prolonged periods of over three months): gradually clump and cake together
